Tests used:
Test in all cases: selective drug sensitivity score (sDSS, relative to normal bone marrow) (sDSS (score)); higher = more potent and effective on the cell line relative to normal bone marrow cells
Conditions in all cases: 72 h
380 = test system: 380
ALL-PO = test system: ALL-PO
COG-LL-317 = test system: COG-LL-317
COG-LL-332h = test system: COG-LL-332h
COG-LL-394h = test system: COG-LL-394h
COG-LL-402h = test system: COG-LL-402h
DND-41 = test system: DND-41
HAL-01 = test system: HAL-01
HPB-ALL = test system: HPB-ALL
KASUMI-10 = test system: KASUMI-10
KASUMI-9 = test system: KASUMI-9
LC4-1 = test system: LC4-1
MHH-CALL-2 = test system: MHH-CALL-2
MHH-CALL-3 = test system: MHH-CALL-3
MOLT-16 = test system: MOLT-16
P30-OHKUBO = test system: P30-OHKUBO
PEER = test system: PEER
RPMI-8402 = test system: RPMI-8402
TANOUE = test system: TANOUE
TMD5 = test system: TMD5
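Further: ALL cell lines in 384-well plates, five doses spanning 10,000-fold, each plate scaled between vehicle and 100 µmol/L benzalkonium chloride controls, sDSS an adapted area-under-curve metric.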

| Compound | selective drug sensitivity score 380 | selective drug sensitivity score (ALL-PO) | selective drug sensitivity score (COG-LL-317) | selective drug sensitivity score (COG-LL-332h) | selective drug sensitivity score (COG-LL-394h) | selective drug sensitivity score (COG-LL-402h) | selective drug sensitivity score (DND-41) | selective drug sensitivity score (HAL-01) | selective drug sensitivity score (HPB-ALL) | selective drug sensitivity score (KASUMI-10) | selective drug sensitivity score (KASUMI-9) | selective drug sensitivity score (LC4-1) | selective drug sensitivity score (MHH-CALL-2) | selective drug sensitivity score (MHH-CALL-3) | selective drug sensitivity score (MOLT-16) | selective drug sensitivity score (P30-OHKUBO) | selective drug sensitivity score (PEER) | selective drug sensitivity score (RPMI-8402) | selective drug sensitivity score (TANOUE) | selective drug sensitivity score (TMD5) |
| --- | --- | --- | --- | --- | --- | --- | --- | --- | --- | --- | --- | --- | --- | --- | --- | --- | --- | --- | --- | --- |
| CCCN(CCC)C(=O)C1=Cc2ccc(-c3ccc(C(=O)N4CCCC4)cc3)cc2N=C(N)C1 [Motolimod] (top concentration 10000 nM) | -4.38 | -3.88 | -4.08 | -3.18 | 0.42 | -4.48 | -4.08 | -4.18 | -3.38 | -2.28 | 1.22 | -3.58 | -3.98 | -4.48 | -2.78 | -1.58 | -3.18 | -2.28 | -4.48 | -3.48 |
| Cc1cc(-c2ncc(CC(=O)Nc3ccc(-c4cnccn4)cn3)cc2C)ccn1 [NVP-LGK974] (top concentration 10000 nM) | 1 | 3.4 | -1.2 | 0.5 | 6.2 | -0.1 | 1.3 | -0.8 | -0.6 | 0.8 | 0.1 | 1.2 | 1.9 | 2 | 4.9 | 2.1 | 6.9 | 4.9 | 5.7 | 3.4 |
| CC1(C)NC(=O)N(c2ccc([N+](=O)[O-])c(C(F)(F)F)c2)C1=O [Nilutamide] (top concentration 10000 nM) | -0.48 | -0.08 | -0.48 | -0.48 | -0.48 | -0.48 | -0.38 | 2.82 | -0.48 | 0.22 | -0.28 | -0.48 | 7.92 | -0.48 | 2.72 | -0.18 | 0.32 | -0.18 | -0.48 | 3.42 |
| CNC(=O)c1ccc2cc([C@@]3(O)CCn4cncc43)ccc2c1 [Orteronel] (top concentration 10000 nM) | 1.4 | 0 | 0 | 0 | 0 | 0 | 0 | 0 | 0 | 0 | 0 | 4.9 | 0 | 0 | 0 | 0 | 0 | 0 | 0 | 0 |
| C=CCc1cccc(/C=N/NC(=O)CN2CCN(Cc3ccccc3)CC2)c1O [PAC-1] (top concentration 10000 nM) | 0.38 | 0.98 | 12.7 | 7.08 | 1.08 | 4.98 | 4.78 | 3.38 | 0.98 | 0.98 | 0.38 | 0.18 | 5.58 | -0.22 | 2.68 | 1.18 | 2.58 | 1.78 | 2.08 | 0.98 |
| O=C(Nc1cccnc1)N1CCC(Cc2cccc(Oc3ccc(C(F)(F)F)cn3)c2)CC1 [PF-3845] (top concentration 10000 nM) | -1.34 | 2.36 | 0.26 | 2.16 | 3.96 | -0.84 | -0.24 | -0.84 | -0.14 | -1.34 | -0.84 | -0.54 | -0.24 | -1.34 | 2.66 | 0.46 | 7.06 | 4.66 | 3.66 | -0.94 |
| COc1cc(Br)c(Nc2nc(-c3c(C)nc4ncccn34)cs2)c(Br)c1 [PTC-209] (top concentration 10000 nM) | -1.48 | -0.98 | 0.42 | -1.08 | -2.58 | -0.78 | -1.18 | 0.42 | 6.92 | 0.92 | 1.92 | 0.12 | 1.92 | -5.08 | 0.72 | 4.52 | -0.38 | 1.02 | -2.58 | -2.18 |
| C=CC(=O)N1CCC(Oc2cc3c(Nc4ccc(Cl)c(Cl)c4F)ncnc3cc2OC)CC1 [Poziotinib] (top concentration 1000 nM) | -0.22 | -0.22 | 2.68 | 1.48 | -0.22 | 1.58 | 2.08 | 1.18 | -0.12 | -0.22 | 0.98 | 0.78 | -0.22 | 3.08 | -0.22 | -0.22 | -0.22 | -0.22 | -0.22 | 1.28 |
| CC[C@H](C)C(=O)O[C@H]1C[C@H](O)C=C2C=C[C@H](C)[C@H](CC[C@@H](O)C[C@@H](O)CC(=O)O)[C@H]21 [Pravastatin] (top concentration 10000 nM) | 3.04 | -0.66 | 0.94 | -0.66 | -0.66 | -0.46 | -0.66 | 0.64 | -0.66 | -0.66 | -0.66 | 3.04 | -0.36 | 0.74 | -0.66 | -0.66 | -0.66 | -0.66 | -0.66 | -0.66 |
| COC(=O)c1ccc([C@H]2c3[nH]c4ccccc4c3C[C@H](C(=O)OC)N2C(=O)CCl)cc1 [RSL3] (top concentration 10000 nM) | 14.2 | 0 | 0.3 | 0 | 0 | 0 | 0 | 3.5 | 0.4 | 0.3 | 0 | 0 | 0.1 | 0.7 | 0 | 2.7 | 0 | 1.2 | 0 | 0 |
| Cc1cnc(NC(=O)Nc2cc(Br)c(C)cc2OC[C@@H]2CNCCO2)cn1 [Rabusertib] (top concentration 1000 nM) | -0.74 | 0.46 | 7.36 | -0.74 | -0.74 | 1.36 | 6.16 | 3.06 | -0.74 | -0.74 | -0.04 | 0.16 | 0.66 | -0.74 | -0.14 | -0.74 | -0.74 | 0.46 | 0.46 | -0.74 |
| CCOCc1nc2c(N)nc3ccccc3c2n1CC(C)(C)O [Resiquimod] (top concentration 10000 nM) | -4.62 | -4.92 | -4.02 | -4.72 | -4.42 | -4.32 | -4.92 | -4.62 | -4.92 | -2.72 | -4.92 | -4.12 | -4.92 | -4.82 | -3.22 | -2.82 | -4.92 | -4.92 | -3.02 | -4.92 |
| C[C@H]1CNCCCN1S(=O)(=O)c1cccc2cncc(F)c12 [Ripasudil] (top concentration 10000 nM) | 3.28 | -0.22 | -0.22 | 1.78 | -0.22 | -0.22 | -0.22 | -0.22 | -0.22 | -0.22 | -0.22 | -0.22 | -0.02 | -0.22 | -0.22 | -0.22 | 1.88 | 0.98 | -0.22 | 0.98 |
| Cc1nc(C(=O)NCC(=O)O)c(O)c2ccc(Oc3ccccc3)cc12 [Roxadustat] (top concentration 10000 nM) | 7.48 | -0.82 | -1.12 | -1.02 | -1.12 | -1.12 | -1.12 | 1.08 | 5.28 | -1.12 | -0.82 | -1.12 | -1.12 | -1.12 | 0.88 | -1.12 | 0.58 | -0.82 | -1.12 | -1.12 |
| CN(C)C[C@@H]1CCn2cc(c3ccccc32)C2=C(C(=O)NC2=O)c2cn(c3ccccc23)CCO1 [Ruboxistaurin] (top concentration 10000 nM) | 3.96 | 6.86 | 1.16 | 1.16 | 0.76 | 0.96 | -0.44 | 1.16 | -5.14 | 1.96 | 1.36 | 0.16 | 3.66 | -4.24 | -0.34 | 0.46 | 0.46 | -1.74 | -8.24 | 0.46 |
| CN(CC(=O)N(Cc1ccc(C2CCCCC2)cc1)c1ccc(C(=O)O)cc1)S(=O)(=O)c1c(F)c(F)c(F)c(F)c1F [SH-4-54] (top concentration 25000 nM) | 6.06 | -6.04 | -5.44 | -0.04 | -5.34 | -2.14 | -2.74 | -6.34 | -6.84 | -3.64 | -6.14 | -3.34 | -7.24 | -0.84 | -6.74 | -5.24 | -4.54 | -5.74 | -4.04 | -5.94 |
| Cc1cc2c(C(=O)NC[C@H](C)c3ccccc3)c(O)c(O)cc2c(O)c1-c1c(C)cc2c(C(=O)NC[C@H](C)c3ccccc3)c(O)c(O)cc2c1O [Sabutoclax] (top concentration 25000 nM) | 14.1 | 12.2 | 15.6 | 12.8 | 15.7 | 15.3 | 10.6 | -7.62 | 19.4 | 5.18 | 14.9 | 13.8 | -7.82 | -8.12 | 17.6 | 15.9 | 14.5 | 4.38 | 2.98 | -7.42 |
| CC1=C2C[C@H]3[C@@H](CC[C@@H]4C[C@H](NS(C)(=O)=O)CC[C@@]43C)[C@@H]2CC[C@@]2(C1)O[C@@H]1C[C@H](C)CN[C@H]1[C@H]2C [Saridegib] (top concentration 10000 nM) | -0.96 | 1.74 | -1.16 | -0.06 | 5.34 | 0.94 | 4.74 | 1.14 | 0.34 | -1.16 | -0.06 | 0.54 | 3.14 | 0.34 | -0.26 | -0.66 | 2.94 | 0.54 | -1.16 | 1.74 |
